Data on 13 compounds can be found in ChEMBL document CHEMBL4342429, “Synthesis and evaluation of substituted 8,8-dimethyl-8H-pyrano[2,3-f]chromen-2-one derivatives as vasorelaxing agents” (Bioorg Med Chem Lett, 2020).

The subject of assay [1] is Mesenteric artery. Nature of the assay: Vasodilating activity in Wistar rat endothelium intact main mesenteric artery assessed as inhibition of U46619-induced contractions. In kind it is functional, tissue-based. Particulars: for EC50: Rattus norvegicus, Wistar, Mesenteric artery.
In assay [2] the test system is Mesenteric artery. Nature of the assay: Vasodilating activity in Wistar rat endothelium intact main mesenteric artery assessed as inhibition of U46619-induced contractions at 1000 uM relative to control. The format is functional.
The subject of assay [3] is Mesenteric artery. The assay is described as follows: Vasodilating activity in Wistar rat endothelium intact main mesenteric artery assessed as inhibition of U46619-induced contractions at 30 uM relative to control. The format is functional.
Assay [4] concerns Mesenteric artery. Nature of the assay: Vasodilating activity against U46619-induced contractions in Wistar rat endothelium intact main mesenteric artery assessed as increase in sensitivity relative to scopoletin. In kind it is functional.
Assay [5] has as its system Mesenteric artery. Nature of the assay: Vasodilating activity in Wistar rat endothelium intact main mesenteric artery preconstricted with 100 nM U46619 assessed as vasorelaxation. The format is functional, tissue-based.
For assay [6], the system named is Mesenteric artery. The assay is described as follows: Vasodilating activity in Wistar rat endothelium-denuded main mesenteric artery preconstricted with 100 nM U46619 assessed as vasorelaxation. The format is functional, tissue-based.
Assay [7] has as its system Mesenteric artery. The assay is described as follows: Vasodilating activity in Wistar rat main mesenteric artery preconstricted with 100 nM U46619 assessed as vasorelaxation relative to control. In kind it is functional.
The test system of assay [8] is Mesenteric artery. Nature of the assay: Vasodilating activity in Wistar rat endothelium intact main mesenteric artery preconstricted with 100 nM U46619 assessed as vasorelaxation relative to control. In kind it is functional.
In assay [9] the test system is Mesenteric artery. The assay is described as follows: Vasodilating activity in Wistar rat main mesenteric artery preconstricted with 100 nM U46619 assessed as relaxation preincubated for 20 mins in presence of 1 mM tetraethyl ammonium relative to control. The format is functional.
Assay [10] has as its system Mesenteric artery. Nature of the assay: Vasodilating activity in Wistar rat main mesenteric artery preconstricted with 100 nM U46619 assessed as vasorelaxation in presence of 80 mM KCl relative to control. The format is functional.
The test system of assay [11] is Mesenteric artery. Nature of the assay: Vasodilating activity in Wistar rat endothelium-denuded main mesenteric artery preconstricted with 100 nM U46619 assessed as vasorelaxation relative to control. In kind it is functional.

Some results are limits rather than exact numbers.

`COc1cc2ccc(=O)oc2cc1O` [SCOPOLETIN]: in assay [1], the pD2 was 3.95 and the EC50 (as a rule, the concentration that produces a half-maximal response) came out at 112 µM. Moreover, in assay [2], the Emax (in general, the size of the effect at its maximum, as opposed to the concentration needed) at 1000 µM turned out to be 89.2%.
Consider `CC1(C)C=Cc2c(c(OCCN3CCCCC3)cc3ccc(=O)oc23)O1`, for which the maximal effect (Emax) at 30 µM in assay [3] is below 10%.
Same read-out and setting: with `CC(CN(C)C)Oc1cc2ccc(=O)oc2c2c1OC(C)(C)C=C2` (stereo not given) the figure was below 10%.
Same read-out and setting: in the case of `CC1(C)C=Cc2c(c(OCCN3CCCC3)cc3ccc(=O)oc23)O1` it was below 10%.
With `CCCCN(C)C(=O)COc1cc2ccc(=O)oc2c2c1OC(C)(C)C=C2`, the Emax at 30 µM in [3] is 65.7%. Further, in assay [1], the pD2 amounted to 5.575 and the EC50 is 2.66 µM. Further, in assay [4], the “fold change (FC)” value turned out to be 42.11.
For `CCCCCN(C)C(=O)COc1cc2ccc(=O)oc2c2c1OC(C)(C)C=C2` the same measures were 94%, 5.419, 3.81 µM and 29.4.
Consider `CCN(CC)CCOc1cc2ccc(=O)oc2c2c1OC(C)(C)C=C2`, for which, in [3], the maximal effect (Emax) at 30 µM is below 10%.
On to `CCCCCN(C)C(=O)CCCOc1cc2ccc(=O)oc2c2c1OC(C)(C)C=C2`, for which the maximum response (Emax) at 30 µM in assay [3] was found to be 95.1%. In addition, in assay [1], the pD2 worked out at 5.491 and the EC50 worked out at 3.23 µM. Also, the “fold change (FC)” value in assay [4] came to 34.67.
As for `CCCCCN(C)C(=O)CCCCOc1cc2ccc(=O)oc2c2c1OC(C)(C)C=C2`, the maximal response (Emax) at 30 µM in assay [3] was 83.1%. In [1], the pD2 is 5.299 and the concentration giving a half-maximal response (EC50) amounted to 5.02 µM. In [4], the “fold change (FC)” value stood at 22.31.
Take `CN(C)CCOc1cc2ccc(=O)oc2c2c1OC(C)(C)C=C2`: the Emax at 30 µM in assay [3] is below 10%.
Take `CCCCN(C)C(=O)CCCCOc1cc2ccc(=O)oc2c2c1OC(C)(C)C=C2`: in assay [3], the Emax at 30 µM was 63.6%. For the same compound, in [1], the pD2 is recorded as 5.674 and the half-maximal effective concentration (EC50) was 2.12 µM. In addition, in [4], the “fold change (FC)” value is 52.83.
In the case of `CCCCN(C)C(=O)CCCOc1cc2ccc(=O)oc2c2c1OC(C)(C)C=C2`, the Emax at 30 µM in assay [3] was below 10%.
Turning to `COc1cc2ccc(=O)oc2c2c1OC(C)(C)C=C2`, the maximal response (Emax) at 30 µM in assay [3] was found to be 96.7%. Further, the Activity entry in [5] and in [6] was “Dose-dependent effect” throughout. In addition, the Emax in assay [7] came out at 94%; in assay [8] it was 94.9%; in [9] it was 54.1%; in assay [10] it was 53.3%; in [11] it was 93.7%. Moreover, the pD2 in [1] is reported as 5.802. Moreover, the concentration for a half-maximal effect (EC50) in [1] turned out to be 1.58 µM. Also, the “fold change (FC)” value in assay [4] was found to be 70.89.
